Assay results taken from ChEMBL document CHEMBL4376829, “Discovery and biological evaluation of vinylsulfonamide derivatives as highly potent, covalent TEAD autopalmitoylation inhibitors” (Eur J Med Chem, 2019).

Experiments:
[1] = molecular target: Mitogen-activated protein kinase 14 (Homo sapiens) (UniProt Q16539); assay: Inhibition of recombinant full-length human SAPK2a at 10 uM using myelin basic protein as substrate measured after 40 mins in presence of [gamma33P]ATP by scintillation counting method relative to control
Sequence of Mitogen-activated protein kinase 14 (Homo sapiens) (Q16539 whole entry, the tested form may be a part): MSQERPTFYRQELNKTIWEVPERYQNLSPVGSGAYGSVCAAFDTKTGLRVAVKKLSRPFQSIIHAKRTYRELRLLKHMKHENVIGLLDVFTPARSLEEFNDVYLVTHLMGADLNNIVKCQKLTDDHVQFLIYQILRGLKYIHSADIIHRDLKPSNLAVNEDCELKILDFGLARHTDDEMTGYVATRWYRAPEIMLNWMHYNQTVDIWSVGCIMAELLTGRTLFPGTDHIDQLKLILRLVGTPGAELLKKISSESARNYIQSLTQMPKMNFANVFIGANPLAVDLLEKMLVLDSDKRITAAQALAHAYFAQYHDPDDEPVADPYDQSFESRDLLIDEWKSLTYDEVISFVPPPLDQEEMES

[2] = molecular target: Transcriptional enhancer factor TEF-3 (Homo sapiens, UniProt Q15561); assay: Inhibition of N-terminal His6 tagged human TEAD4-YBD (217 to 434 residues) expressed in Escherichia coli C43 (DE3) cells assessed as reduction in autopalmitoylation at 800 nM preincubated for 2 hrs followed by palmitoyl alkyne-coenzyme A addition and measured after 30 mins by immunoblot analysis relative to control
Sequence of Transcriptional enhancer factor TEF-3 (Q15561 whole entry, the tested form may be a part): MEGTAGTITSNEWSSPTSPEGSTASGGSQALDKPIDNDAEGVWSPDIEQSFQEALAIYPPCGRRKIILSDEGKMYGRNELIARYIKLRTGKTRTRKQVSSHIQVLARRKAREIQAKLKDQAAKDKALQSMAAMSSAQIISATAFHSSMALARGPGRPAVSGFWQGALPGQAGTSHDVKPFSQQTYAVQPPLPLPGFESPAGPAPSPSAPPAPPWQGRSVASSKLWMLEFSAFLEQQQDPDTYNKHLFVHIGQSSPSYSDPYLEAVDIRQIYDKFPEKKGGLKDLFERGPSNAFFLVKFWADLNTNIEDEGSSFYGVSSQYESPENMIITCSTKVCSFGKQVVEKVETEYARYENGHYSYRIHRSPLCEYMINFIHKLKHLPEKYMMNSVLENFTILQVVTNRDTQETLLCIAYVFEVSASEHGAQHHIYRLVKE

[3] = system: CDK18/Cyclin Y (Homo sapiens), Q07002+Q8ND76 [T166M]; assay: Inhibition of recombinant full length human cyclinY/CDK18 T166M mutant at 10 uM using YRRAAVPPSPSLS as substrate measured after 40 mins in presence of [gamma33P]ATP by scintillation counting method relative to control; format: protein-complex assay

## C=CS(=O)(=O)Nc1ccc(Cc2ccc3ccccc3c2)cc1
[1]
  inhibition: 10%
[2]
  inhibition: 91.6%
[3]
  inhibition: -5%
